Measurements from US20070049538A1, “METHODS FOR USING CUCURBITACIN COMPOUNDS” (SOUTH DAKOTA STATE UNIVERSITY, priority 2005, published 2007).
“Also recorded” adds a separate entry of the source.

Tests used:
HSC-T6 cells [1] = assay: Serum-driven HSC-T6 proliferation, experiment 1 (4 h challenge, two days drug-free growth); format: cell-based, rat; conditions: for EC50: HSC-T6, 4 h challenge, then two days drug-free media
HepG2 cells = assay: Cucurbitacins cytotoxicity on HepG2 cells (MTT viability assay); format: cell-based, human
HSC-T6 cells [2] = assay: Serum-driven HSC-T6 proliferation, experiment 2 (24 h, starved/quiescent cells); format: cell-based, rat; conditions: HSC-T6, 24 h, starved (quiescent) cells; read-out: Experiment 2 EC50
Procedure: To overcome this problem, the amount of incubation time was increased to 24 h, and cucurbitacin activity measured on starved (Exp. 2) or proliferative (Exp. 3) cells (Table 8). Cells turned quiescent when serum was not supplemented for one day (Exp. 2). Activity of a few compounds was monitored on quiescent cells, and their activity compared to the ones measured on proliferating cells (Exp. 3).
We established several experimental conditions such as 4 hours of incubation time with cucurbitacin, and 2 day cell incubation with fresh media after challenging with cucurbitacin (Exp. 1). Other experiments involved addition of cucurbitacin for 24 hours over starved cells (Exp. 2) vs. proliferating cells (Exp. 3), and one day incubation of cells with fresh media after challenge. The 4 hour incubation period with cucurbitacin triggered anti-proliferation effect. This effect, however, was hindered by a second cycle of cell proliferation during the two-day cell growth period (see silybin, E and I glucosides, and for I-nPr). […] Because of that, the challenge time was increased to 24 hours (Exp. 2 and 3).
In experiment 3, only 40% of the cells divided. The ratio of EC50 values for exp. 2 and exp. 3 varied between 3.6 and 12.7. This may indicate differential cytotoxicity of silybin and cucurbitacin analogs over quiescent and active stellate cells. In other words, compounds show higher anti-proliferative activity on active cells than on quiescent cells.

[3] = in vivo; cited from earlier work
hyaluronidase = hyaluronidase (Bos taurus, UniProt Q2YDK3); assay: Anti-Hyaluronidase Assay; format: biochemical; conditions: up to 71.68 mM
Text: Cucurbitacin anti-inflammatory activity was monitored by the Anti-Hyaluronidase Assay (Facino et al., Il Farmaco 48: 1447-1461, 1993 and Linker, A., Hyaluronidase. In: Methods of enzymatic analysis. Vol. 4., Bergmeyer, H. U. (Editor), Verlag Chemie GmbH, Berlin, 256-262, 1984). This assay was validated using the standard compound phenylbutazone.

[4] = DPPH* Stable Free Radical Scavenging Assay; conditions: at 50 μM
Procedure: Cucurbitacin antioxidant activity was studied first by the DPPH* Stable Free Radical Scavenging Assay (Cotelle et al., Free radical Biology & Medicine 20(1): 35-43, 1996). Experimental conditions were optimized on the standard compound ascorbic acid. Data indicated 30% activity at 50 μM concentration, and 100% activity at 100 μM for ascorbic acid. While the original assay required 10 minutes incubation time for the reaction to occur, this time was increased up to 30 minutes in case cucurbitacin were reacting slower than other reagents.

[5] = ABTS*+ Radical Cation Decolorization Assay; conditions: at 50 μM, 100 μM and 1.8 mM, up to 2 hours
Procedure: Cucurbitacin B activity was monitored at 50 μM, 100 μM, and 1.8 mM. The time interval was expanded up to 2 hours in case cucurbitacin B was reacting slowly.

hyaluronidase, sequence (Q2YDK3 entry or part of it): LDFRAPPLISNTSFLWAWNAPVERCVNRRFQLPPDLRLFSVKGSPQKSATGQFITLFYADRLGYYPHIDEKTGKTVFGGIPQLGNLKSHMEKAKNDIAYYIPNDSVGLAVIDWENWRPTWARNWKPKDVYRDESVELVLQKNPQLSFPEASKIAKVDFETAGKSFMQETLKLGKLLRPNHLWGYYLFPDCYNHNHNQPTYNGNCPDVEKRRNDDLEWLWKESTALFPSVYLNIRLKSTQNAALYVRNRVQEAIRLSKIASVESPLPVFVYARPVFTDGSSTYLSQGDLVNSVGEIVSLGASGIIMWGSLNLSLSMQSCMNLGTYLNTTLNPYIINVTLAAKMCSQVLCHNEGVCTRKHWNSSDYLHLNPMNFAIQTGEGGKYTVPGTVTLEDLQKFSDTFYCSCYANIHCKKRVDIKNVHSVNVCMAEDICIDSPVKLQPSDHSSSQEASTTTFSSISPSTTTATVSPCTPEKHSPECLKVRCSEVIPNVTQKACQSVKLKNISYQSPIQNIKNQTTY

Compound	anti-proliferation activity (HSC-T6 cells [1]; Experiment 1, FIG. 7, 150 μM)	Experiment 1 anti-proliferation activity (HSC-T6 cells [1]; measured at 100 μM)	IC50 (HepG2 cells; Table 4, 24 h incubation, MTT)	IC50 (HepG2 cells; Table 5)	IC50 (HepG2 cells; Table 7)	EC50 (HSC-T6 cells [2])	EC50 (HSC-T6 cells [1])	protective and preventive activity [3]	anti-hyaluronidase activity (hyaluronidase)	DPPH activity [4]	ABTS activity [5]
CC(=O)OC(C)(C)/C=C/C(=O)[C@](C)(O)[C@H]1[C@H](O)C[C@@]2(C)[C@@H]3CC=C4[C@@H](C=C(O[C@@H]5O[C@H](CO)[C@@H](O)[C@H](O)[C@H]5O)C(=O)C4(C)C)[C@]3(C)C(=O)C[C@]12C [E-Gluc, cucurbitacin E glucoside]	about 38%	˜46%^a^	227 ± 15.3 µM	227 ± 15.5 µM	227 µM	20 µM					
cucurbitacin E			15.3 µM	15.3 ± 6.6 µM	15.3 µM		0.86 µM	significantly reducing serum enzymes level, steatosis, inflammation, and experimental cholestasis			
Cucurbitacin E-Me ether			12 ± 3 µM	12 ± 3 µM	12 µM		3.05 µM				
CC(=O)OC(C)(C)/C=C/C(=O)[C@](C)(O)[C@H]1[C@H](O)C[C@@]2(C)[C@@H]3CC=C4[C@H](C[C@H](O)C(=O)C4(C)C)[C@]3(C)C(=O)C[C@]12C [B, cucurbitacin B]			27.7 ± 9 µM	27.7 ± 9 µM	27.7 µM		1.18 µM	significantly reducing serum enzymes level, steatosis, inflammation, and experimental cholestasis	no activity; also recorded: did not demonstrate anti-hyaluronidase activity	did not indicate any activity	No activity was observed
